Assays:
[1] = biological target: human β2-adrenergic receptor (Homo sapiens, UniProt P07550); assay: agonist effect on the human β2-adrenergic receptor, cellular cAMP accumulation assay (HTRF); format: cell-based; conditions: recombinant CHO cells; for EC50: 30 minutes at room temperature, read-out: ECso; for β2 adrenergic receptor agonist activity: summary in words
Excerpt: We then have tested the in vitro activity of (-)-hydroxymatairesinol (two epimers; 7S,8R,8'R and 7R,8R,8'R), (-)(7S,8R,8'R)-hydroxymatairesinol, (+)-lariciresinol, (-)-secoisolariciresinol, knot-wood extracts of Picea abies and Abies alba against β2-adrenergic receptor, in a cellular based assay, according to the Table 1 below (Baker J.G. (2005), Brit. J. Pharmacol., 144: 317). Table 1: Test of the agonist effect of compounds on the human β2-adrenergic receptor
Mammalian recombinant cells (CHO cells) stably expressing human β2-adrenergic receptor were suspended in HBSS buffer (Invitrogen) complemented with 20 mM HEPES (pH 7.4) and 500 µM IBMX, then distributed in microplates at a density of 10^4 cells/well and incubated for 30 min at room temperature in the presence of HBSS (basal control), the test compound or the reference agonist. For stimulated control measurement, separate assay wells contained 100 nM isoproterenol. Following incubation, the cells were lysed and the fluorescence acceptor (D2-labeled cAMP) and fluorescence donor (anti-cAMP antibody labeled with europium cryptate) were added. After 60 min at room temperature, the fluorescence transfer was measured at λex=337 nm and λem=620 and 665 nm using a microplate reader (Rubystar, BMG). The cAMP concentration was determined by dividing the signal measured at 665 nm by that measured at 620 nm (ratio). Results are expressed as a percent of the control response to 100 nM isoproterenol. The standard reference agonist is isoproterenol, which was tested in each experiment at several concentrations to generate a concentration-response curve from which its EC50 value was calculated.
The knot-wood extract for use of the invention as well as the lignans for use of the invention were tested at a concentration of 10^-5 M. Results are presented in Figure 4, and are expressed as a percentage of control agonist response, wherein 100% corresponds to the agonist response measured when cells are treated with 0.1 µM isoproterenol.
Then, we measured the corresponding EC50. EC50 represents the half maximal effective concentration, and refers to the concentration of a compound which induces a response halfway between the baseline and maximum.

TNF-α [2] = assay: elastase lung injury model, TNF-α in bronchoalveolar lavage fluid (ELISA); format: in vivo, mice; conditions: elastase group vs control group; HMR 30 mg/kg intratracheal instillation 15 min before elastase; BAL fluid after 24 hours; p < 0.05
Experimental: (§1) Male C57B1/6 WT mice (n=35) weighing between 20 and 25 g and aged of 8 weeks were obtained from Janvier Labs (Saint Berthevin, France) and were housed in the animal facility of the laboratory, with free access to water and food, for at least 1 week before the beginning of the experimentation.
(§2) The mice were randomly divided into six groups (n = 5-6/group). At t=0, mice were submitted to intratracheal instillation with lignan of the invention (HMR with a purity of 95%, 30 mg/kg body wt dissolved in PBS containing 1% DMSO) or with PBS with 1% DMSO. At t=15 min, mice were submitted to instillation either with 30 µl of elastase (1UI diluted in PBS) or 30 µl of LPS (10 µg/ml diluted in PBS) or 30 µl of PBS containing 1% DMSO. Mice were anesthetized with 150 µl of a solution containing xylazine 10% and ketamine 10% and sacrificed after 24 hours, and the bronchoalveolar lavage (BAL) fluid was collected for subsequent analyses.
(§3) Lungs were washed twice with 1ml of PBS then centrifuged at 10,000 rpm at 4°C for 10 min, and the resulting supernatant of the BAL was aliquoted as 210 µl samples and used for TNF-α cytokine protein quantification using an ELISA kit (mouse TNF-alpha DuoSet; R&D Systems Europe, Ltd., France).

TNF-α [3] = assay: LPS lung injury model, TNF-α in bronchoalveolar lavage fluid (ELISA); format: in vivo, mice; conditions: LPS group vs control group; HMR 30 mg/kg intratracheal instillation 15 min before LPS; BAL fluid after 24 hours; p < 0.05
Experimental: as §1, §2, §3

TNF-α [4] = assay: cigarette smoke-induced lung injury model, TNF-α in bronchoalveolar lavage fluid (ELISA); format: in vivo; conditions: mice exposed to cigarette smoke vs non-treated mice; HMR 30 mg/kg intratracheal instillation daily for 4 days; BAL fluid at day 5; p < 0.05
Experimental: Male C57B1/6 WT mice (n=36) weighting between 20 and 25 g and aged of 9 weeks were obtained from Janvier Labs (Saint Berthevin, France) and were housed in the animal facility of the laboratory, with free access to water and food, for at least 1 week before the beginning of the experimentation.
The mice were randomly divided into six groups (n = 6/group). Mice were submitted to intratracheal instillation with 50 µl lignan of the invention (HMR with a purity of 95%, 30 mg/kg body wt dissolved in PBS containing 5%DMSO) or with PBS with 5% DMSO daily: After 3 hours mice were exposed to ambient air (AA) or to cigarette smoke (CS; 18 cigarettes per hour) for 3 hours.
This procedure was repeated 4 days. Mice were anesthetized with 250 µl of a solution containing xylazine 10% and ketamine 10% and were sacrificed at day 5. The BAL fluid was collected for analyses.
Lungs were washed twice with 1ml of PBS then centrifuged at 10,000 rpm at 4°C for 10 min, and the resulting supernatant of the BAL was aliquoted as 210 µl samples and used for TNF-α cytokine protein quantification using an ELISA kit (mouse TNFalpha DuoSet; R&D Systems Europe, Ltd., France).

Chain of human β2-adrenergic receptor (P07550 whole entry): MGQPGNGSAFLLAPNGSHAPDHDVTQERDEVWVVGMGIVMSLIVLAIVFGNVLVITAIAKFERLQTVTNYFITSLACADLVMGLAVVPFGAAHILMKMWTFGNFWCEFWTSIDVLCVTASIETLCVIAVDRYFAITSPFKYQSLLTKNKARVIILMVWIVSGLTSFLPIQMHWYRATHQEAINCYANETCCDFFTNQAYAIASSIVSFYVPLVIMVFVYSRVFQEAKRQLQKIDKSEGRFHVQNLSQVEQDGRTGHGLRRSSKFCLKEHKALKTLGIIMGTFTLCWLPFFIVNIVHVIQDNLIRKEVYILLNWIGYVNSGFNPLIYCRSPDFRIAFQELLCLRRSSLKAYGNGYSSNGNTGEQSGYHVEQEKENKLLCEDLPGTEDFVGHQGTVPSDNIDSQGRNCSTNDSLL

Row | SMILES | EC50 [1] [nM] | β2 adrenergic receptor agonist activity [1] | level of TNF-α (TNF-α [2]) | level of TNF-α (TNF-α [3]) | level of TNF-α (TNF-α [4])
1 | COc1cc(C[C@H]2C(=O)OC[C@@H]2C(O)c2ccc(O)c(OC)c2)ccc1O (mixture of isomers) [HMR, (-) hydroxymatairesinol (2 epimers: 7S,8R,8'R and 7R,8R,8'R)] | 350 | strong β2 adrenergic receptor agonist activity | significantly reduced | significantly reduced | significant reduced level
2 | COc1cc(CC2C(=O)OCC2C(O)c2ccc(O)c(OC)c2)ccc1O (single isomer, unassigned; (-)) [HMR2] | 1500 | strong β2 adrenergic receptor agonist activity | – | – | –
3 | COc1cc(C[C@H]2CO[C@H](c3ccc(O)c(OC)c3)[C@H]2CO)ccc1O [Lari, (+)-lariciresinol] | 1700 | strong β2 adrenergic receptor agonist activity | – | – | –
4 | COc1cc(C[C@@H](CO)[C@H](CO)Cc2ccc(O)c(OC)c2)ccc1O [Seco, (-)-Secoisolariciresinol] | 2500 | strong β2 adrenergic receptor agonist activity | – | – | –
